We go through 16 molecules from paper PMC7583898, “Novel Harmicines with Improved Potency against Plasmodium” (Molecules, 2020).

Read-outs that look alike come from different tables or passages of the source.

The subject of assay [1] is P. falciparum erythrocytic stage, PfDd2 (chloroquine-resistant) strain. As to the kind of experiment: In vitro drug sensitivity assay against erythrocytic stage of P. falciparum, PfDd2 strain (HRP2-ELISA). Type of assay: cell-based. The conditions noted are these: Plasmodium falciparum, mean ± SD. The procedure:
(§1) The antiplasmodial activity of harmicines 5 and 6 was evaluated against two laboratory P. falciparum strains (3D7 – CQ-sensitive, and Dd2 – CQ-resistant), as previously described, using the histidine-rich protein 2 (HRP2) assay. […] After three days of incubation at 37 °C, 5% CO2 and 5% oxygen, plates were frozen until analyzed by HRP2-ELISA. All compounds were evaluated in duplicate in at least two independent experiments. The IC50 was determined by nonlinear regression analysis of log concentration–response curves using the drc package v0.9.0 of R v2.6.1 [22].

The subject of assay [2] is human liver hepatocellular carcinoma cell line (HepG2). In words: In vitro cytotoxicity assay (neutral red). Type of assay: cell-based. The settings on record: for IC50: Homo sapiens, HepG2, 24 h, neutral red, one day incubation, mean ± SD; for SI, selectivity index: ratio between IC50 (HepG2) and IC50 (Pf3D7). As to the method: A cytotoxicity assay was performed using the neutral red assay, as described previously, against human liver hepatocellular carcinoma cell line (HepG2) (Table 1). For the safety assessment, a selectivity index (SI) for each compound was calculated as the fractional ratio between the IC50 values for HepG2 and P. falciparum Pf3D7 strain (Table 2). In general, N-harmicines 5 are less cytotoxic than O-harmicines 6, which is in agreement with the results obtained for triazole-type harmicines. Furthermore, all N-harmicines, but only two O-harmicines, 6d and 6f, have more favorable SIs than the parent compound harmine (SI = 30). […] Compound 5b, with a m-fluorine substituent in the cinnamic scaffold, exerted the highest selectivity (SI = 773), followed by 5a, an amide with unsubstituted cinnamic acid (SI = 715).
Cytotoxicity against a human cell line (HepG2) was evaluated using the neutral red assay. In brief, human cells were seeded to a 96 well plate in complete culture medium, before on the following day a serial dilution of the respective compound was added. After one day of incubation, cytotoxicity was evaluated by the addition of Neutral Red, subsequent lysis of cells and the measurement of absorbance in a plate reader. The IC50 was determined as for the in vitro drug assay against P. falciparum. To assess the safety of a compound, SI was calculated as the fractional ratio between the IC50 values for HepG2 and the P. falciparum 3D7 strain.

Assay [3] deals with P. falciparum erythrocytic stage, Pf3D7 (chloroquine-sensitive) strain. As to the kind of experiment: In vitro drug sensitivity assay against erythrocytic stage of P. falciparum, Pf3D7 strain (HRP2-ELISA). Type of assay: cell-based. The settings on record: Plasmodium falciparum, mean ± SD. As to the method:
as §1
(In an ELISA, binding on a coated surface is turned into a signal by an enzyme label.)

Assay [4] relates to P. falciparum erythrocytic stage, PfDd2 (chloroquine-resistant) strain. The conditions noted are these: ref [15]; cited from earlier work.
Assay [5] deals with P. falciparum erythrocytic stage, Pf3D7 (chloroquine-sensitive) strain. More on the design: method as in PMID 31812035. The conditions noted are these: ref [15]; cited from earlier work.
Assay [6] concerns human liver hepatocellular carcinoma cell line (HepG2). More on the design: method as in PMID 31812035. The settings on record: ref [15]; cited from earlier work.

The IC50 is the point on the concentration scale where inhibition reaches its midpoint. Take `COc1ccc2c3ccnc(C)c3n(CCNC(=O)C=Cc3ccccc3)c2c1` [5a, N-(2-(7-methoxy-1-methyl-9H-pyrido[3,4-b]indol-9-yl)ethyl)cinnamamide]: the half-inhibitory concentration (IC50) in assay [1] came out at 1110 ± 150 nM; in assay [2] it was 350000 ± 13000 nM; in assay [3], 490 ± 250 nM. For the same molecule, the “SI, selectivity index” value in assay [2] was 715.
In the case of `COc1ccc2c3ccnc(C)c3n(CCNC(=O)/C=C/c3cccc(F)c3)c2c1` [5b, (E)-3-(3-fluorophenyl)-N-(2-(7-methoxy-1-methyl-9H-pyrido[3,4-b]indol-9-yl)ethyl)acrylamide], the IC50 stood at 780 ± 320 nM in assay [1], 54100 ± 13400 nM in assay [2] and 70 ± 30 nM in assay [3]. For the same molecule, in assay [2], the “SI, selectivity index” value is given as 773.
As for `COc1ccc2c3ccnc(C)c3n(CCNC(=O)/C=C/c3cccc(Br)c3)c2c1` [5c, (E)-3-(3-bromophenyl)-N-(2-(7-methoxy-1-methyl-9H-pyrido[3,4-b]indol-9-yl)ethyl)acrylamide], the IC50 amounted to 410 ± 10 nM in assay [1], 2880 ± 420 nM in assay [2] and 70 ± 30 nM in assay [3]. In addition, the “SI, selectivity index” value in assay [2] stood at 41.
For the molecule `COc1ccc2c3ccnc(C)c3n(CCNC(=O)/C=C/c3ccc(F)cc3)c2c1` [5d, (E)-3-(4-fluorophenyl)-N-(2-(7-methoxy-1-methyl-9H-pyrido[3,4-b]indol-9-yl)ethyl)acrylamide], the IC50 came to 330 ± 110 nM in assay [1], 21000 ± 880 nM in assay [2] and 90 ± 60 nM in assay [3]. In addition, the “SI, selectivity index” value in assay [2] worked out at 233.
On to `COc1ccc2c3ccnc(C)c3n(CCNC(=O)/C=C/c3ccc(Cl)cc3)c2c1` [5e, (E)-3-(4-chlorophenyl)-N-(2-(7-methoxy-1-methyl-9H-pyrido[3,4-b]indol-9-yl)ethyl)acrylamide], for which the IC50 in assay [1] was 170 ± 10 nM; in assay [2] it was 2910 ± 1750 nM; in assay [3], 40 ± 20 nM. Besides, the “SI, selectivity index” value in assay [2] worked out at 73.
For `COc1ccc(/C=C/C(=O)NCCn2c3cc(OC)ccc3c3ccnc(C)c32)cc1` [5f, (E)-N-(2-(7-methoxy-1-methyl-9H-pyrido[3,4-b]indol-9-yl)ethyl)-3-(4-methoxyphenyl)acrylamide], the IC50 in assay [1] amounted to 490 ± 240 nM; in assay [2], 74700 ± 7610 nM; in assay [3], 260 ± 1 nM. The “SI, selectivity index” value in assay [2] amounted to 287.
The corresponding values for `Cc1nccc2c1[nH]c1cc(OCCNC(=O)C=Cc3ccccc3)ccc12` [6a, N-(2-((1-methyl-9H-pyrido[3,4-b]indol-7-yl)oxy)ethyl)cinnamamide] are 4700 ± 2650 nM, 12700 ± 660 nM, 980 ± 120 nM and 13.
With `Cc1nccc2c1[nH]c1cc(OCCNC(=O)/C=C/c3cccc(F)c3)ccc12` [6b, (E)-3-(3-fluorophenyl)-N-(2-((1-methyl-9H-pyrido[3,4-b]indol-7-yl)oxy)ethyl)acrylamide], the IC50 came out at 5010 ± 830 nM in assay [1], 12900 ± 3310 nM in assay [2] and 2750 ± 1600 nM in assay [3]. The “SI, selectivity index” value in assay [2] is recorded as 5.
On the same counts, the results for `Cc1nccc2c1[nH]c1cc(OCCNC(=O)/C=C/c3cccc(Br)c3)ccc12` [6c, (E)-3-(3-bromophenyl)-N-(2-((1-methyl-9H-pyrido[3,4-b]indol-7-yl)oxy)ethyl)acrylamide] are 480 ± 280 nM, 6110 ± 2070 nM, 370 ± 220 nM and 16.
Take `Cc1nccc2c1[nH]c1cc(OCCNC(=O)/C=C/c3ccc(F)cc3)ccc12` [6d, (E)-3-(4-fluorophenyl)-N-(2-((1-methyl-9H-pyrido[3,4-b]indol-7-yl)oxy)ethyl)acrylamide]: the IC50 in assay [1] turned out to be 690 ± 180 nM; in assay [2], 7630 ± 2470 nM; in assay [3], 150 ± 60 nM. Besides, the “SI, selectivity index” value in assay [2] stood at 51.
On to `Cc1nccc2c1[nH]c1cc(OCCNC(=O)/C=C/c3ccc(Cl)cc3)ccc12` [6e, (E)-3-(4-chlorophenyl)-N-(2-((1-methyl-9H-pyrido[3,4-b]indol-7-yl)oxy)ethyl)acrylamide], for which the values for the concentration for half-maximal inhibition (IC50) in assay [1], in assay [2] and in assay [3] were 400 ± 240 nM, 7720 ± 3040 nM and 320 ± 30 nM, respectively. Also, the “SI, selectivity index” value in assay [2] was determined as 24.
With `COc1ccc(/C=C/C(=O)NCCOc2ccc3c(c2)[nH]c2c(C)nccc23)cc1` [6f, (E)-3-(4-methoxyphenyl)-N-(2-((1-methyl-9H-pyrido[3,4-b]indol-7-yl)oxy)ethyl)acrylamide], the half-maximal inhibitory concentration (IC50) in assay [1] was found to be 1090 ± 490 nM; in assay [2] it was 10500 ± 430 nM; in assay [3], 210 ± 140 nM. In addition, the “SI, selectivity index” value in assay [2] stood at 50.
The corresponding values for `Cc1nccc2c1[nH]c1cc(OCCNC(=O)/C=C/c3ccccc3F)ccc12` [6g, (E)-3-(2-fluorophenyl)-N-(2-((1-methyl-9H-pyrido[3,4-b]indol-7-yl)oxy)ethyl)acrylamide] are 3920 ± 1350 nM, 16200 ± 1860 nM, 930 ± 280 nM and 17.
As for `C/C(=C\c1ccccc1)C(=O)NCCOc1ccc2c(c1)[nH]c1c(C)nccc12` [6h, (E)-2-methyl-N-(2-((1-methyl-9H-pyrido[3,4-b]indol-7-yl)oxy)ethyl)-3-phenylacrylamide], the IC50 in assay [1] turned out to be 19500 ± 11800 nM; in assay [2], 61300 ± 2750 nM; in assay [3] it was 6780 ± 720 nM. Also, in assay [2], the “SI, selectivity index” value is recorded as 9.
With `CCN(CC)CCCC(C)Nc1ccnc2cc(Cl)ccc12` (stereo not drawn) [CQ, chloroquine], the figures for the IC50 in assay [4] and in assay [5] were 200 ± 100 nM and 3 ± 2 nM, respectively.
For `COc1ccc2c(c1)[nH]c1c(C)nccc12` [Harmine, harmine], the IC50 in assay [4] is over 27700 nM; in assay [6], over 250000 nM.
